Columns and labels:
[1] = target: T1, Ectonucleotide pyrophosphatase/phosphodiesterase family member 3 (Homo sapiens, UniProt O14638); assay: Inhibition of human recombinant NPP3 expressed in COS-7 cell membrane […] using p-nitrophenyl thymidine monophosphate substrate incubated for 35 mins by spectrophotometric analysis; type: cell membranes
T1 sequence (O14638 whole entry): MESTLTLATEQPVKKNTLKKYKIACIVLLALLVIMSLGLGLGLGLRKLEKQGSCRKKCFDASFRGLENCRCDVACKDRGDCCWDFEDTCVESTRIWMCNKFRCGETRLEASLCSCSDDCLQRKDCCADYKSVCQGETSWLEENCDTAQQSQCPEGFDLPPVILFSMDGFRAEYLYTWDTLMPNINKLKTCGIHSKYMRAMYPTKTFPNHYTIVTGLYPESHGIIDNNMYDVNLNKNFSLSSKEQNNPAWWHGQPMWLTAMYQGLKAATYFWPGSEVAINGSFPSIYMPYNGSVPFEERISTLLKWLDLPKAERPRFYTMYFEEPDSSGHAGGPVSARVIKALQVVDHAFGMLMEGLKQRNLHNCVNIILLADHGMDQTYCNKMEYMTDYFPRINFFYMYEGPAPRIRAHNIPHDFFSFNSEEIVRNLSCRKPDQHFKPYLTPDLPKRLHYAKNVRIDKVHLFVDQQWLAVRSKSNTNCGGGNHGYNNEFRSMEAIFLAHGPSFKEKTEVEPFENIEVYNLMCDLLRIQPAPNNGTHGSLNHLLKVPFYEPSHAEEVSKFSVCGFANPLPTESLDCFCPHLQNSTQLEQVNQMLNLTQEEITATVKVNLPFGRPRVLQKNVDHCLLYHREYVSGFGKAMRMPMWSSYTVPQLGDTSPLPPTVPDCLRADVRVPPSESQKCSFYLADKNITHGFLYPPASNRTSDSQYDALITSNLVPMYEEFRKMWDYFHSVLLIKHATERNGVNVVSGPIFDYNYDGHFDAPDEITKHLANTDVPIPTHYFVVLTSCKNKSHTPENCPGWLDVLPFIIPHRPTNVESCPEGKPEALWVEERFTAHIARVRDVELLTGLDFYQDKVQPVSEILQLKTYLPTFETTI

[2] = target: T2, Ectonucleotide pyrophosphatase/phosphodiesterase family member 1 (Homo sapiens) (UniProt P22413); assay: Inhibition of human recombinant NPP1 expressed in COS-7 cell membrane using p-nitrophenyl thymidine monophosphate substrate incubated for 35 mins by spectrophotometric analysis; type: cell membranes; parameters: concentration or dose not given beside the values
T2 sequence (whole entry): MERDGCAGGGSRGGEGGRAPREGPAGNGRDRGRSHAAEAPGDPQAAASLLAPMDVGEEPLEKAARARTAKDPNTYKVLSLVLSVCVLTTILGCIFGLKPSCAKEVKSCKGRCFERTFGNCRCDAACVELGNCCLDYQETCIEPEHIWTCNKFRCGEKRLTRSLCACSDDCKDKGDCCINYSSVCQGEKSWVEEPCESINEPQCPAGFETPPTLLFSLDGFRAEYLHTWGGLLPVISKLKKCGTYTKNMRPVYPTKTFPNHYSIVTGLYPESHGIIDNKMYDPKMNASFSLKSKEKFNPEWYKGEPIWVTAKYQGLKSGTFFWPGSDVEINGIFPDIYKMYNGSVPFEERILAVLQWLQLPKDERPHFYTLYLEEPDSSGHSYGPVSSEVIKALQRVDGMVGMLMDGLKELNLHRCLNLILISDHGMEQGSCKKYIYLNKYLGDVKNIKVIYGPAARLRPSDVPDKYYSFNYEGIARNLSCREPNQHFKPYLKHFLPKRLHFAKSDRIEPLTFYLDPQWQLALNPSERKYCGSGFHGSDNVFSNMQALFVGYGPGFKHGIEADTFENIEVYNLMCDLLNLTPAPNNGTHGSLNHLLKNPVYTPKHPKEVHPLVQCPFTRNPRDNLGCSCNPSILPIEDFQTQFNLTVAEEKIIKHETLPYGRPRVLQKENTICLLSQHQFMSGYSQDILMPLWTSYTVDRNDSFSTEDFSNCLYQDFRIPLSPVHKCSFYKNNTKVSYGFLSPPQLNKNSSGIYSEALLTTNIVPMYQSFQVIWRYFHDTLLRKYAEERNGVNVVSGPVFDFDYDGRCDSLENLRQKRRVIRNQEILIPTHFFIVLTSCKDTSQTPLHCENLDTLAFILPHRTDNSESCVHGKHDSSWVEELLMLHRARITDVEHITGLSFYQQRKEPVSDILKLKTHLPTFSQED

[3] = target: Ectonucleotide pyrophosphatase/phosphodiesterase family member 3 (Homo sapiens) (UniProt O14638); assay: Inhibition of human recombinant NPP3 expressed in COS-7 cell membrane using p-nitrophenyl thymidine monophosphate substrate incubated for 35 mins by spectrophotometric analysis; parameters: concentration or dose not given beside the values
[4] = target: T3, Ectonucleotide pyrophosphatase/phosphodiesterase family member 1 (Homo sapiens, UniProt P22413); assay: Inhibition of human recombinant NPP1 expressed in COS-7 cell membrane […] using p-nitrophenyl thymidine monophosphate substrate incubated for 35 mins by spectrophotometric analysis; type: cell membranes
T3 sequence (P22413 whole entry): T2 sequence (whole entry)

[5] = target: T4, Ectonucleotide pyrophosphatase/phosphodiesterase family member 3 (Homo sapiens) (UniProt O14638); assay: Potency index, ratio of IC50 for suramin to IC50 for test compound for human recombinant NPP3 expressed in COS-7 cell membrane using p-nitrophenyl thymidine monophosphate substrate incubated for 35 mins by spectrophotometric analysis; type: cell membranes
T4 sequence (whole entry): T1 sequence (O14638 whole entry)

[6] = target: T2, Ectonucleotide pyrophosphatase/phosphodiesterase family member 1 (Homo sapiens); assay: Potency index, ratio of IC50 for suramin to IC50 for test compound for human recombinant NPP1 expressed in COS-7 cell membrane using p-nitrophenyl thymidine monophosphate substrate incubated for 35 mins by spectrophotometric analysis; type: cell membranes

Cc1cccc(-c2ccc(-c3coc(C)n3)cc2)c1
IC50 [1]: 1700 nM | inhibition [2]: 43%

Cc1nc(-c2ccc(-c3ccccc3C)cc2)co1
inhibition [2]: 40% | inhibition [3]: 45%

c1ccc(-c2nc(-c3ccc(-c4cccc5ccccc45)cc3)co2)cc1
inhibition [2]: 44% | inhibition [3]: 43%

Cc1cccc(-c2ccc(-c3coc(-c4ccccc4)n3)cc2)c1
inhibition [2]: 48%

c1ccc(-c2ccc(-c3coc(-c4ccccc4-c4ccccc4)n3)cc2)cc1
inhibition [2]: 33% | inhibition [3]: 47%

Cc1cccc(-c2ccc(-c3coc(-c4ccccc4-c4cccc(C)c4)n3)cc2)c1
IC50 [1]: 2210 nM | inhibition [2]: 36%

Cc1nc(-c2ccc(-c3ccc(OCc4ccccc4)cc3)cc2)co1
IC50 [1]: 1310 nM | IC50 [4]: 1440 nM

COc1ccc(-c2ccc(-c3coc(C)n3)cc2)cc1
IC50 [1]: 170 nM | Ratio IC50 [5]: 5.3 | inhibition [2]: 38%

Cc1ccccc1-c1ccc(-c2coc(-c3ccccc3)n2)cc1
IC50 [1]: 4230 nM | IC50 [4]: 420 nM

Cc1ccc(-c2ccc(-c3coc(C)n3)cc2)cc1
IC50 [1]: 5060 nM | IC50 [4]: 2560 nM

Cc1nc(-c2ccc(-c3ccccc3)cc2)co1
inhibition [2]: 46% | inhibition [3]: 43%

COc1ccc(-c2ccc(-c3coc(-c4ccccc4)n3)cc2)cc1
IC50 [1]: 3730 nM | IC50 [4]: 17200 nM

Cc1nc(-c2ccc(-c3cccc4ccccc34)cc2)co1
IC50 [1]: 150 nM | IC50 [4]: 2410 nM

CCOc1ccccc1-c1nc(-c2ccc(-c3cccc4ccccc34)cc2)co1
Ratio IC50 [6]: 51.8 | IC50 [4]: 150 nM | inhibition [3]: 40%

CCOc1ccccc1-c1nc(-c2ccc(-c3ccccc3)cc2)co1
inhibition [2]: 27% | inhibition [3]: 48%

c1ccc(-c2ccc(-c3coc(-c4ccccc4)n3)cc2)cc1
inhibition [2]: 31% | inhibition [3]: 49%

CCOc1ccccc1-c1nc(-c2ccc(-c3ccc(C)cc3)cc2)co1
IC50 [1]: 11100 nM | IC50 [4]: 9230 nM
